Assay results reported in patent US10351559B2, “Maleate salts of a B-RAF kinase inhibitor, crystalline forms, methods of preparation, and uses therefore” (BeiGene, Ltd., priority 2015, dated 2019).
Counter-ions that a name gives are not always drawn.

Columns and labels:
aqueous solubility study = format: physicochemical; conditions: sesqui-maleate salt
C-Raf (Y340D/Y341D) = molecular target: T1, C-Raf (Y340D/Y341D) (Homo sapiens, UniProt P04049, Y340D/Y341D); assay: Raf kinase enzymatic assay (HTRF); format: biochemical
T1 construct: purchased Life Technologies PV3805
Method: (§1) Crystalline Form A* of Compound 1 Sesqui-Maleate was tested against recombinant B-Raf (V600E) (PV3849), C-Raf (Y340D/Y341D) (PV3805) and wild-type Braf (PV3848) from Life Technologies in kinase activity assays based on homogeneous time-resolved fluorescence (HTRF) methodology (Cisbio Bioassays). The assays were carried out in a reaction mixture containing RAF kinases, ATP at KM concentration, GST-tagged MEK1 (K97R) and Crystalline Form A* of Compound 1 Sesqui-Maleate or DMSO in buffer containing 25 mM Tris pH7.4, 10 mM MgCl2, 0.5 mM EGTA, 0.5 mM Na3VO4, 5 mM beta-glycerophosphate, 0.01% Triton X-100, 2.5 mM DTT and 0.1% BSA. The kinase was incubated with Crystalline Form A* of Compound 1 Sesqui-Maleate for 1 hr at room temperature (RT) and the reaction was initiated by the addition of ATP and GST-MEK1 (Full-length protein with K97R mutation, recombinant protein purified from bacterial expression system). After reaction at RT for 1 hr, stop/detection solution was added according to the manufacture's instruction (Cisbio Bioassays). The stop/detection solution contained Eu3+ cryptate-conjugated anti-phospho MEK1/2 (Ser217/221) rabbit polyclonal antibody and d2-conjugated anti-GST mouse monoclonal antibody in buffer containing 25 mM Tris pH7.4, 400 mM KF, 50 mM EDTA, 0.1% BSA and 0.01% Triton X-100. The TR-FRET signals (ratio of fluorescence emission at 665 nm over emission at 620 nm with excitation at 337 nm wavelength) were measured on a PHERAstar FS plate reader (BMG Labtech) after 1.5 hr incubation. Phosphorylation of MEK1 led to the binding of anti-phospho-MEK1/2 antibody to GST-MEK1 protein that place fluorescent donor (Eu3+ crypate) in close proximity to the accepter d2 on the anti-GST antibody, thus resulting in a high degree of fluorescence resonance energy transfer from the donor fluorophore (at 620 nm) to the acceptor fluorophore (at 665 nm). The IC50 for Crystalline Form A* of Compound 1 Sesqui-Maleate was derived from fitting the dose-response % inhibition data to the four-parameter logistic model by Graphpad Prism software.

wild-type Braf = wild-type Braf (Homo sapiens, UniProt P15056); assay: Raf kinase enzymatic assay (HTRF); format: biochemical
Method: as §1

[1] = tested on: ERK1/2 phosphorylation in A375 xenografts; assay: PD study, p-ERK1/2 in tumor tissue (AlphaScreen SureFire); format: in vivo; conditions: A375 xenografts in mice, oral administration
Method: Human cancer cells were inoculated subcutaneously in the right axilla region of BALB/C nude mice to generate tumor xenografts. On the day of implantation, the cell culture medium was replaced with fresh medium. Three hours later, the media was removed and the cells were collected and re-suspended in cold (4° C.) PBS prior to inoculation. The right axilla region of each mouse was cleaned with 70% ethanol prior to cell inoculation. Each animal was injected subcutaneously with desired cells in 200 μl of cell suspension in the right front flank via a 26-gauge needle. After implantation tumor volumes were measured twice weekly in two dimensions using a calliper. Tumor volume was calculated using the formula: V=0.5×(a×b^2) where a and b are the long and short diameters of the tumor, respectively.
For PD study, when the average tumor size reaches 140-900 mm^3, animals were assigned into desired number of groups with 4 mice per group using a stratified randomization procedure. The groups consisted of a control group (no drug treatment), and different dose levels of Crystalline Form A* of Compound 1 Sesqui-Maleate treatment groups (ranged from 1-20 mg/kg). All doses were based on free-base weight. Drugs were administered by oral gavage once (qd) or twice (bid) daily. […] Body weight was assessed immediately before dosing and the volume dosed was adjusted accordingly. […]

[2] = nonclinical toxicity and safety pharmacology program
Method: A comprehensive nonclinical toxicity study program, including 28-day GLP studies in rats and dogs and several investigational studies, was conducted for the evaluation of the preclinical safety of Compound 1 Sesqui-Maleate (Crystalline Form A*). These studies took account the available regulatory guidance for preclinical development of anticancer drugs.

[3] = tested on: BRAF V600E and KRAS cancers; assay: Phase I clinical study; format: in vivo, human; conditions: capsules, 5-50 mg single doses, 25 subjects

wild-type Braf, sequence (P15056 whole entry): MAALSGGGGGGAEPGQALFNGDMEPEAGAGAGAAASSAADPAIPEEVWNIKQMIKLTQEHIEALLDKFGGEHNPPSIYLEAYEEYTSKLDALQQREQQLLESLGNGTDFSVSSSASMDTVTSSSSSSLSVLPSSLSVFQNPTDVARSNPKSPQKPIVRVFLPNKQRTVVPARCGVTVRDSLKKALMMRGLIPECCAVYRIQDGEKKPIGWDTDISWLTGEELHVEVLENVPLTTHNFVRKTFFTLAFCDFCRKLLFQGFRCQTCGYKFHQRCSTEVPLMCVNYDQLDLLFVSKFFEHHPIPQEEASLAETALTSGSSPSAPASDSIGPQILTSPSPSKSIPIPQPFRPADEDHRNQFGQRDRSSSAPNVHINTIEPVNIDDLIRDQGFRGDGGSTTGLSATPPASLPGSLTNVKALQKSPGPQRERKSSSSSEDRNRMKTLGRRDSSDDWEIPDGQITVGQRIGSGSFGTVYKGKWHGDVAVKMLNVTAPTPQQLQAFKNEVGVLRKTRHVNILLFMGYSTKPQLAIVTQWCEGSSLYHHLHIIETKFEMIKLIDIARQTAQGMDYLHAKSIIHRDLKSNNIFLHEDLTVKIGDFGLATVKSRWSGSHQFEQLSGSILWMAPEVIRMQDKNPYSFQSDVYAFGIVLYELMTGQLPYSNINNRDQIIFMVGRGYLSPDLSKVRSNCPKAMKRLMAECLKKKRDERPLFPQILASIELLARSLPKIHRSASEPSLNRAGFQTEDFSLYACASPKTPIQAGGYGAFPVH
T1 sequence (P04049 whole entry Y340D/Y341D): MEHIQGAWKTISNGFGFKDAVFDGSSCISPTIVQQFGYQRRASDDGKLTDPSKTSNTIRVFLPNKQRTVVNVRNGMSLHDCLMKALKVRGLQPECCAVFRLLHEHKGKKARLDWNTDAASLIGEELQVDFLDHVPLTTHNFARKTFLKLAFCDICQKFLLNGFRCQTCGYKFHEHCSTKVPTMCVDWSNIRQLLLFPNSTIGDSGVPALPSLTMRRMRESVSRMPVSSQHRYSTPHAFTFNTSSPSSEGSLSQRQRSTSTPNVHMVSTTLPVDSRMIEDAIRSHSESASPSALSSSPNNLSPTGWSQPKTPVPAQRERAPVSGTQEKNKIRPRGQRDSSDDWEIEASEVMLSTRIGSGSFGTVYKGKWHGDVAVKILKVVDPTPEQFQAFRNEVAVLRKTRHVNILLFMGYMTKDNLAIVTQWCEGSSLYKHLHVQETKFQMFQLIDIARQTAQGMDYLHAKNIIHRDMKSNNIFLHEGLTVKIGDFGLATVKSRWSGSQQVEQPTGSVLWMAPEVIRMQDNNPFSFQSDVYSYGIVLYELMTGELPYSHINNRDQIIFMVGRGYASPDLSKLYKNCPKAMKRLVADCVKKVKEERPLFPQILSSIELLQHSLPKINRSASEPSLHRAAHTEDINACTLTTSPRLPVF

For `O=C1CCc2c(Oc3ccc4c(c3)[C@@H]3[C@H](O4)[C@H]3c3nc4ccc(C(F)(F)F)cc4[nH]3)ccnc2N1` [5-(((1R,1aS,6bR)-1-(6-(trifluoromethyl)-1H-benzo[d]imidazol-2-yl)-1a,6b-dihydro-1H-cyclopropa[b]benzofuran-5-yl)oxy)-3,4-dihydro-1,8-naphthyridin-2(1H)-one sesqui-maleate salt], the “solubility in water” value (aqueous solubility study) was “slightly soluble in water”, the aqueous solubility (aqueous solubility study; water, LOQ at 0.001 mg/mL) was 20 µg/mL and the “enzyme inhibition” value (C-Raf (Y340D/Y341D); C-RAF) was “potent and reversible inhibitor”. The IC50 (C-Raf (Y340D/Y341D); CRAF Y340, 341D, ATP at KM) was 3.5 nM, the IC50 (wild-type Braf; WT-BRAF, ATP at KM) was 69 nM and the “enzyme inhibition” value (wild-type Braf; wild-type B-RAF) was “potent and reversible inhibitor”. The “inhibition of ERK1/2 phosphorylation in tumor” value [1] was “time-dependent and dose-dependent inhibition”, the “teratogenic, mutagenic and reproductive toxicity” value ([2]; additional toxicity testing) was “no teratogenic, mutagenic and reproductive toxicity” and the “toxicology and safety pharmacology profile” value ([2]; incl. 28-day GLP studies in rats and dogs) was “favorable toxicology and safety pharmacology profile”. For the same molecule, the “effect on autonomic nervous system activity or the central nervous system” value ([2]; safety pharmacological test) was “no effect”, the “effect on respiration, blood pressure and circulatory function” value ([2]; safety pharmacological test) was “no effect” and the “clinical safety of single doses” value [3] was “safe and well tolerated”.
